Experiment [1] deals with cathepsin D (Homo sapiens, UniProt P07339). The experiment can be described thus: Cathepsin D cuvette assay for IC50 and inhibition constants (Ki). Type of experiment: biochemical. The source says: Compounds capable of inhibiting cathepsin D can readily be identified using the assays described herein which measure a change in the hydrolysis of a peptide substrate. More particularly, a fluorometric high through-put assay for activity toward human liver cathepsin D (Calbiochem) can be used to screen the compounds of the present invention for their ability to inhibit cathepsin D. This assay was previously described by G. A. Kraft, et al., Methods Enzymol. 241, 70-86 (1994), the teachings of which are incorporated herein by reference. […] T. Baldwin, et al., Proc. Natl. Acad. […] Generally, the reactants are mixed, the reaction is allowed to proceed for a specific period of time and the fluorescence of the reaction products is monitored to determine the extent to which the peptide substrate has been cleaved. […] 241, 70-86 (1994). As such, following the methods of the present invention, compounds can be readily synthesized and screened to identify compounds that inhibit cathepsin D. [table]

The target in experiment [2] is T1, human liver cathepsin D (Homo sapiens, UniProt P07339).
T1 construct: human liver cathepsin D (Calbiochem); purchased Calbiochem; host or cells: human liver
The experiment can be described thus: High-throughput fluorometric cathepsin D assay (library screen). Type of experiment: biochemical. Conditions: crude compound, approximate concentration; for inhibition at 0.1 µM: 100 nM inhibitor; for inhibition at 0.33 µM: 330 nM inhibitor, read-out: Inhibition of Cathepsin D in Library Screen. The text has this:
Compounds capable of inhibiting cathepsin D can readily be identified using the assays described herein which measure a change in the hydrolysis of a peptide substrate. More particularly, a fluorometric high through-put assay for activity toward human liver cathepsin D (Calbiochem) can be used to screen the compounds of the present invention for their ability to inhibit cathepsin D. This assay was previously described by G. A. Kraft, et al., Methods Enzymol. 241, 70-86 (1994), the teachings of which are incorporated herein by reference. […] T. Baldwin, et al., Proc. Natl. Acad. Sci., U.S.A. 90, 6796-6800 (1993)). Generally, the reactants are mixed, the reaction is allowed to proceed for a specific period of time and the fluorescence of the reaction products is monitored to determine the extent to which the peptide substrate has been cleaved. […] 241, 70-86 (1994). As such, following the methods of the present invention, compounds can be readily synthesized and screened to identify compounds that inhibit cathepsin D. Briefly, a fluorometric high through-put assay for activity toward human liver cathepsin D (Calbiochem) was performed in 96-well microtiter plates (G. A. Krafft, et al., Methods Enymol. 241, 70-86 (1994)). […] T. Baldwin, et al., Proc. Natl. Acad. Sci., U.S.A. 90, 6796-6800 (1993)). The assay was performed in […] Microfluor fluorescence microtiter plates, and readings were taken on a Perkin-Elmer LS-50B with an attached 96-well plate reader. The excitation wavelength was 340 nm. A 340 nm interference filter (Hoya, U-340) for excitation and a 430 nm cut-off filter for emission were used. […] The fluorescent unit readings were taken at three time points within the linear region of the substrate cleavage, and percent activity of the enzyme was determined by comparing the change of fluorescent units (FU) for each well to the average change in FU for six control wells without inhibitor.

The mark [3] stands for this setting: Table VI, P1-varied 204 compound library, purified.
The mark [4] stands for this setting: Table IV, substrate 2.5 μM, cathepsin D 10 nM, Ki ≈ IC50 − Et/2.
The mark [5] stands for this setting: Table V second generation, conditions as Table IV.
Where [6] appears, read: Table V second generation, conditions as Table IV, Ki ≈ IC50 − Et/2.

Here are results for 15 compounds from patent US7119105B2, “Methods for treating neurodegenerative disorders using aspartyl protease inhibitors” (The Regents of the University of California, priority 1997, dated 2006).

cathepsin D, sequence (P07339 65-412): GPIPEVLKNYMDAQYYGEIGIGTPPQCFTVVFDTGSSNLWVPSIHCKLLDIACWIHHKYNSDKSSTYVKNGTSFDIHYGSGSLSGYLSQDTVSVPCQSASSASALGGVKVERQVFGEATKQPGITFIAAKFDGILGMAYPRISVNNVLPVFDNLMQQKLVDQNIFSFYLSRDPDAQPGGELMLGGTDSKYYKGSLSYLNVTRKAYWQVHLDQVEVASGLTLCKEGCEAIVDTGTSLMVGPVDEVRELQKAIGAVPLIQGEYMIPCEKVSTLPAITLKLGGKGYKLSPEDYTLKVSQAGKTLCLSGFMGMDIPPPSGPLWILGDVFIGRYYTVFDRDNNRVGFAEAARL
T1 sequence (P07339 169-412 limits assumed): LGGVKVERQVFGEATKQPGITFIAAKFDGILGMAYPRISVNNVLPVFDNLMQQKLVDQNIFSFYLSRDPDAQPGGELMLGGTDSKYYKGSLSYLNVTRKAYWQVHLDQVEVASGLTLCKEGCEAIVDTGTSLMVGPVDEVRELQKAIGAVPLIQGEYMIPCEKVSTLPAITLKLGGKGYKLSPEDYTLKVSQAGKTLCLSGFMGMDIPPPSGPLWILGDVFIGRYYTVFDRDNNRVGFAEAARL
T1 sequence (P07339 65-162 limits assumed): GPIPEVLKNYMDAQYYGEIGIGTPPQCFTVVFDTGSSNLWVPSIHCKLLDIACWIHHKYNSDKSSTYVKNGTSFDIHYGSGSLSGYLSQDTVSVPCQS

The compound `COc1cc(Br)c(C(=O)N[C@@H](Cc2cccc(Oc3ccccc3)c2)[C@@H](O)CN(CCc2ccc(Cl)cc2Cl)C(=O)CCN2C(=O)c3ccccc3C2=O)cc1OC` [Kbcf] came in with a Ki in experiment [1] (setting [3]) of 0.0019 ± 0.0002 µM.

Consider `COc1ccc(C(=O)N[C@@H](Cc2ccccc2)[C@@H](O)CN(CCc2ccc3c(c2)OCO3)C(=O)CCN2C(=O)c3ccccc3C2=O)c(Cl)c1OC` [EHJ], for which, in experiment [2], the inhibition at 0.1 µM is ≥ 50% and the inhibition at 0.33 µM is ≥ 50%. In experiment [1] (setting [4]), this compound gave a Ki of 0.111 ± 0.008 µM.

In the case of `O=C(COc1ccc(Cl)cc1Cl)N[C@@H](Cc1ccccc1)[C@@H](O)CN(CCc1ccc2c(c1)OCO2)C(=O)CCN1C(=O)c2ccccc2C1=O` [EHM], the IC50 in experiment [1] (setting [5]) came out at 0.014 ± 0.002 µM. The compound further had an inhibition constant Ki in experiment [1] (setting [6]) of 0.009 µM.

`O=C(COc1cc(Cl)c(Cl)cc1Cl)N[C@@H](Cc1ccccc1)[C@@H](O)CN(CCc1ccc2c(c1)OCO2)C(=O)CCN1C(=O)c2ccccc2C1=O` [EHD]: in experiment [2], the inhibition at 0.1 µM was ≥ 50% and the inhibition at 0.33 µM is ≥ 50%. Further, the affinity in experiment [1] (setting [4]) corresponds to a Ki of 0.073 ± 0.009 µM.

The compound `O=C(COc1ccc(Cl)c(Cl)c1)N[C@@H](Cc1ccccc1)[C@@H](O)CN(CCc1ccc(Cl)cc1Cl)C(=O)CCN1C(=O)c2ccccc2C1=O` [FHO] gave a concentration for half-maximal inhibition (IC50) in experiment [1] (setting [5]) of 0.018 ± 0.002 µM. This compound had a Ki in experiment [1] (setting [6]) of 0.014 µM.

On to `COc1cc(Br)c(C(=O)N[C@@H](Cc2ccc(-c3ccccc3)cc2)C(O)CN(CCc2ccc(Cl)cc2Cl)C(=O)CCN2C(=O)c3ccccc3C2=O)cc1OC` (stereo partly shown) [Obcf], for which the Ki in experiment [1] (setting [3]) stood at 0.0026 ± 0.0002 µM.

In the case of `O=C(CCn1c(=O)oc2ccccc21)N[C@@H](Cc1ccccc1)[C@@H](O)CN(CCc1ccc2c(c1)OCO2)C(=O)CCc1ccc(Cl)c(Cl)c1` [EFA], in experiment [2], the inhibition at 0.1 µM is ≥ 50% and the inhibition at 0.33 µM was ≥ 50%. This compound registered an inhibition constant Ki in experiment [1] (setting [4]) of 0.171 ± 0.025 µM.

The compound `O=C(COc1ccc(Cl)c(Cl)c1)N[C@@H](Cc1ccccc1)[C@@H](O)CN(CCc1ccc2c(c1)OCO2)C(=O)CCN1C(=O)c2ccccc2C1=O` [EHO] displayed an IC50 in experiment [1] (setting [5]) of 0.019 ± 0.002 µM. In experiment [1] (setting [6]), this compound displayed a Ki of 0.015 µM.

As to `O=C(CCn1c(=O)oc2ccccc21)N[C@@H](Cc1ccccc1)[C@@H](O)CN(CCc1ccc2c(c1)OCO2)C(=O)CCN1C(=O)c2ccccc2C1=O` [EHA], in experiment [2], the inhibition at 0.1 µM was ≥ 50% and the inhibition at 0.33 µM was ≥ 50%. In experiment [1] (setting [4]), this compound had a Ki of 0.131 ± 0.012 µM.

`COc1cc(Br)c(C(=O)N[C@@H](Cc2ccc(Br)cc2)[C@@H](O)CN(CCc2ccc(Cl)cc2Cl)C(=O)CCN2C(=O)c3ccccc3C2=O)cc1OC` [Qbcf] came in with a Ki in experiment [1] (setting [3]) of 0.0067 ± 0.0007 µM.

In the case of `O=C(COc1cccc(Cl)c1)N[C@@H](Cc1ccccc1)[C@@H](O)CN(CCc1ccc2c(c1)OCO2)C(=O)CCN1C(=O)c2ccccc2C1=O` [EHR], half-maximal inhibition in experiment [1] (setting [5]) (IC50) was put at 0.02 ± 0.002 µM. The compound further returned an inhibitory constant (Ki) in experiment [1] (setting [6]) of 0.015 µM.

As for `O=C(CCn1c(=O)oc2ccccc21)N[C@@H](Cc1ccccc1)[C@@H](O)CN(CCc1ccc(Cl)cc1Cl)C(=O)CCN1C(=O)c2ccccc2C1=O` [FHA], in experiment [2], the inhibition at 0.1 µM is ≥ 50% and the inhibition at 0.33 µM was ≥ 50%. Besides, in experiment [1] (setting [4]), the Ki worked out at 0.231 ± 0.031 µM.

Compound `COc1cc(Br)c(C(=O)N[C@@H](Cc2ccc3ccccc3c2)[C@@H](O)CN(CCc2ccc(Cl)cc2Cl)C(=O)CCN2C(=O)c3ccccc3C2=O)cc1OC` [Gbcf] returned a Ki in experiment [1] (setting [3]) of 0.0026 ± 0.0002 µM.

`COc1cc(Br)c(C(=O)N[C@@H](Cc2ccccc2)[C@@H](O)CN(CCc2ccc3c(c2)OCO3)C(=O)CCN2C(=O)c3ccccc3C2=O)cc1OC` [EHS] displayed an IC50 in experiment [1] (setting [5]) of 0.064 ± 0.006 µM. In experiment [1] (setting [6]), affinity was put at a Ki of 0.059 µM.

Consider `Cc1ccc(CCN(C[C@H](O)[C@H](Cc2ccccc2)NC(=O)COc2cc(Cl)c(Cl)cc2Cl)C(=O)CCN2C(=O)c3ccccc3C2=O)cc1` [UHD], for which the IC50 in experiment [1] (setting [5]) was 0.229 ± 0.044 µM. Also, the affinity in experiment [1] (setting [6]), expressed as Ki, was 0.224 µM.

Broadly, the Ki is the dissociation constant of the complex between target and ligand, obtained from inhibition or displacement. The inhibition is the percentage by which the read-out fell short of the control. The IC50 is the concentration needed to halve the response being measured.
